Patent publication US20240409571A1 (priority 2023, published 2024)

Columns and labels:
CjCst-II = format: biochemical, Campylobacter jejuni
CjCst-I = format: biochemical, Campylobacter jejuni

| Compound | Sialylation by CjCst-II, acceptor GM3ßSph (CjCst-II) | Sialylation by CjCst-II, acceptor GM3βProN3 (CjCst-II) | activity towards sialylating (CjCst-I) |
| --- | --- | --- | --- |
| CC(=O)N[C@H]1[C@H](O)[C@H](NC(C)=O)C(O)O[C@@H]1CO (stereo partly drawn) [ManNAc4NAc, 4-acetamido-4-deoxy-N-acetylmannosamine] | No reaction | No reaction | – |
| CCCCCCCCCCCCC/C=C/[C@@H](O)[C@@H](N)CO [GD1b sphingosine] | – | – | very good activity |
